Measurements published in patent publication US10681909B2, “Herbicidal triazoles” (FMC Corporation, priority 2014, dated 2020).

Key:
[1] = system: barnyardgrass; assay: Test A preemergence; assay type: in vivo, Echinochloa crus-galli; conditions: 0 to 100 scale (0 no effect, 100 complete control)
Source text: (§1) Seeds of plant species selected from barnyardgrass (Echinochloa crus-galli), crabgrass, large (large crabgrass, Digitaria sanguinalis), kochia (Kochia scoparia), ragweed (common ragweed, Ambrosia elatior), foxtail, giant (giant foxtail, Setaria faberii), morningglory (Ipomoea spp.), pigweed (Amaranthus retroflexus), velvetleaf (Abutilon theophrasti), ryegrass, Italian (Italian ryegrass, Lolium multiflorum), wheat (Triticum aestivum), and corn (Zea mays) were planted into a blend of loam soil and sand and treated preemergence with a directed soil spray using test chemicals formulated in a non-phytotoxic solvent mixture which included a surfactant. At the same time, plants selected from these crop and weed species and also blackgrass (Alopecurus myosuroides), and galium (catchweed bedstraw, Galium aparine), were planted in pots containing the same blend of loam soil and sand and treated with postemergence applications of test chemicals formulated in the same manner. Plants ranged in height from 2 to 10 cm and were in the one- to two-leaf stage for the postemergence treatment. […] A dash (-) response means no test result.

[2] = system: kochia; assay: Test A preemergence; assay type: in vivo, Kochia scoparia; conditions: 0 to 100 scale (0 no effect, 100 complete control)
Source text: (§2) Seeds of plant species selected from barnyardgrass (Echinochloa crus-galli), crabgrass, large (large crabgrass, Digitaria sanguinalis), kochia (Kochia scoparia), ragweed (common ragweed, Ambrosia elatior), foxtail, giant (giant foxtail, Setaria faberii), morningglory (Ipomoea spp.), pigweed (Amaranthus retroflexus), velvetleaf (Abutilon theophrasti), ryegrass, Italian (Italian ryegrass, Lolium multiflorum), wheat (Triticum aestivum), and corn (Zea mays) were planted into a blend of loam soil and sand and treated preemergence with a directed soil spray using test chemicals formulated in a non-phytotoxic solvent mixture which included a surfactant.
(§3) At the same time, plants selected from these crop and weed species and also blackgrass (Alopecurus myosuroides), and galium (catchweed bedstraw, Galium aparine), were planted in pots containing the same blend of loam soil and sand and treated with postemergence applications of test chemicals formulated in the same manner. Plants ranged in height from 2 to 10 cm and were in the one- to two-leaf stage for the postemergence treatment. Treated plants and untreated controls were maintained in a greenhouse for approximately 10 d, after which time all treated plants were compared to untreated controls and visually evaluated for injury. Plant response ratings, summarized in Table A, are based on a 0 to 100 scale where 0 is no effect and 100 is complete control. A dash (-) response means no test result.

[3] = system: ragweed; assay: Test A preemergence; assay type: in vivo, Ambrosia elatior; conditions: 0 to 100 scale (0 no effect, 100 complete control)
Source text: as §2, §3

[4] = system: foxtail, giant; assay: Test A preemergence; assay type: in vivo, Setaria faberii; conditions: 0 to 100 scale (0 no effect, 100 complete control)
Source text: as §1

[5] = system: pigweed; assay: Test A preemergence; assay type: in vivo, Amaranthus retroflexus; conditions: 0 to 100 scale (0 no effect, 100 complete control)
Source text: as §1

[6] = system: ryegrass, Italian; assay: Test A preemergence; assay type: in vivo, Lolium multiflorum; conditions: 0 to 100 scale (0 no effect, 100 complete control)
Source text: as §2, §3

[7] = system: barnyardgrass; assay: Test A postemergence; assay type: in vivo, Echinochloa crus-galli; conditions: 0 to 100 scale (0 no effect, 100 complete control), approx. 10 d
Source text: as §1

[8] = system: kochia; assay: Test A postemergence; assay type: in vivo, Kochia scoparia; conditions: 0 to 100 scale (0 no effect, 100 complete control), approx. 10 d
Source text: as §2, §3

[9] = system: ragweed; assay: Test A postemergence; assay type: in vivo, Ambrosia elatior; conditions: 0 to 100 scale (0 no effect, 100 complete control), approx. 10 d
Source text: as §2, §3

[10] = system: foxtail, giant; assay: Test A postemergence; assay type: in vivo, Setaria faberii; conditions: 0 to 100 scale (0 no effect, 100 complete control), approx. 10 d
Source text: as §1

[11] = system: pigweed; assay: Test A postemergence; assay type: in vivo, Amaranthus retroflexus; conditions: 0 to 100 scale (0 no effect, 100 complete control), approx. 10 d
Source text: as §1

[12] = system: ryegrass, Italian; assay: Test A postemergence; assay type: in vivo, Lolium multiflorum; conditions: 0 to 100 scale (0 no effect, 100 complete control), approx. 10 d
Source text: as §2, §3

[13] = system: wheat; assay: Test A postemergence; assay type: in vivo, Triticum aestivum; conditions: 0 to 100 scale (0 no effect, 100 complete control), approx. 10 d
Source text: as §1

[14] = system: corn; assay: Test A postemergence; assay type: in vivo, Zea mays; conditions: 0 to 100 scale (0 no effect, 100 complete control), approx. 10 d
Source text: as §1

[15] = system: blackgrass; assay: Test A postemergence; assay type: in vivo, Alopecurus myosuroides; conditions: 0 to 100 scale (0 no effect, 100 complete control), approx. 10 d
Source text: as §2, §3

[16] = system: galium; assay: Test A postemergence; assay type: in vivo, Galium aparine; conditions: 0 to 100 scale (0 no effect, 100 complete control), approx. 10 d
Source text: as §2, §3

Structure (SMILES)	Plant response rating, Barnyardgrass ([1]; 31 g ai/ha)	Plant response rating, Barnyardgrass ([1]; 125 g ai/ha)	Plant response rating, Kochia ([2]; 31 g ai/ha)	Plant response rating, Kochia ([2]; 125 g ai/ha)	Plant response rating, Ragweed ([3]; 31 g ai/ha)	Plant response rating, Ragweed ([3]; 125 g ai/ha)	Plant response rating, Foxtail, Giant ([4]; 31 g ai/ha)	Plant response rating, Foxtail, Giant ([4]; 125 g ai/ha)	Plant response rating, Pigweed ([5]; 31 g ai/ha)	Plant response rating, Pigweed ([5]; 125 g ai/ha)	Plant response rating, Ryegrass, Italian ([6]; 31 g ai/ha)	Plant response rating, Ryegrass, Italian ([6]; 125 g ai/ha)	Plant response rating, Barnyardgrass ([7]; 31 g ai/ha)	Plant response rating, Barnyardgrass ([7]; 125 g ai/ha)	Plant response rating, Kochia ([8]; 31 g ai/ha)	Plant response rating, Kochia ([8]; 125 g ai/ha)	Plant response rating, Ragweed ([9]; 31 g ai/ha)	Plant response rating, Ragweed ([9]; 125 g ai/ha)	Plant response rating, Foxtail, Giant ([10]; 31 g ai/ha)	Plant response rating, Foxtail, Giant ([10]; 125 g ai/ha)	other results
FC(F)(F)COc1nc(-c2ccc(C(F)(F)F)cc2)nn1Cc1ccnc(C(F)(F)F)c1 [Compound 34]	30	100	20	90	0	30	100	100	100	100	0	90	20	70	70	90	20	50	20	90	Plant response rating, Pigweed ([11]; 31 g ai/ha): 100; Plant response rating, Pigweed ([11]; 125 g ai/ha): 100; Plant response rating, Ryegrass, Italian ([12]; 31 g ai/ha): 0; Plant response rating, Ryegrass, Italian ([12]; 125 g ai/ha): 20; Plant response rating, Wheat ([13]; 31 g ai/ha): 30; Plant response rating, Wheat ([13]; 125 g ai/ha): 50; Plant response rating, Corn ([14]; 31 g ai/ha): 20; Plant response rating, Corn ([14]; 125 g ai/ha): 20; Plant response rating, Blackgrass ([15]; 31 g ai/ha): 20; Plant response rating, Blackgrass ([15]; 125 g ai/ha): 50; Plant response rating, Galium ([16]; 31 g ai/ha): 30; Plant response rating, Galium ([16]; 125 g ai/ha): 90
Cc1nc(-c2ccc(Br)cc2)nn1Cc1ccnc(C(F)(F)F)c1 [Compound 36]	0	60	60	90	0	20	20	90	90	90	0	10	0	20	70	90	0	30	20	70	Plant response rating, Pigweed ([11]; 31 g ai/ha): 90; Plant response rating, Pigweed ([11]; 125 g ai/ha): 100; Plant response rating, Ryegrass, Italian ([12]; 31 g ai/ha): 0; Plant response rating, Ryegrass, Italian ([12]; 125 g ai/ha): 0; Plant response rating, Wheat ([13]; 31 g ai/ha): 0; Plant response rating, Wheat ([13]; 125 g ai/ha): 10; Plant response rating, Corn ([14]; 31 g ai/ha): 20; Plant response rating, Corn ([14]; 125 g ai/ha): 30; Plant response rating, Blackgrass ([15]; 31 g ai/ha): 10; Plant response rating, Blackgrass ([15]; 125 g ai/ha): 30; Plant response rating, Galium ([16]; 31 g ai/ha): 50; Plant response rating, Galium ([16]; 125 g ai/ha): 90
Cc1nc(-c2ccc(OC(F)(F)F)cc2)nn1Cc1ccnc(C(F)(F)F)c1 [Compound 37]	0	0	0	0	0	0	0	0	10	20	0	0	0	0	20	70	0	0	0	0	Plant response rating, Pigweed ([11]; 31 g ai/ha): 20; Plant response rating, Pigweed ([11]; 125 g ai/ha): 80; Plant response rating, Ryegrass, Italian ([12]; 31 g ai/ha): 0; Plant response rating, Ryegrass, Italian ([12]; 125 g ai/ha): 0; Plant response rating, Wheat ([13]; 31 g ai/ha): 0; Plant response rating, Wheat ([13]; 125 g ai/ha): 0; Plant response rating, Corn ([14]; 31 g ai/ha): 10; Plant response rating, Corn ([14]; 125 g ai/ha): 20; Plant response rating, Blackgrass ([15]; 31 g ai/ha): 0; Plant response rating, Blackgrass ([15]; 125 g ai/ha): 20; Plant response rating, Galium ([16]; 31 g ai/ha): 0; Plant response rating, Galium ([16]; 125 g ai/ha): 20
Cc1nc(-c2ccc(F)cc2)nn1Cc1ccnc(C(F)(F)F)c1 [Compound 38]	0	80	30	100	0	20	20	100	90	100	0	10	0	20	70	90	0	30	20	80	Plant response rating, Pigweed ([11]; 31 g ai/ha): 80; Plant response rating, Pigweed ([11]; 125 g ai/ha): 90; Plant response rating, Ryegrass, Italian ([12]; 31 g ai/ha): 0; Plant response rating, Ryegrass, Italian ([12]; 125 g ai/ha): 0; Plant response rating, Wheat ([13]; 31 g ai/ha): 0; Plant response rating, Wheat ([13]; 125 g ai/ha): 10; Plant response rating, Corn ([14]; 31 g ai/ha): 10; Plant response rating, Corn ([14]; 125 g ai/ha): 30; Plant response rating, Blackgrass ([15]; 31 g ai/ha): 10; Plant response rating, Blackgrass ([15]; 125 g ai/ha): 40; Plant response rating, Galium ([16]; 31 g ai/ha): 30; Plant response rating, Galium ([16]; 125 g ai/ha): 90
CCc1nc(-c2ccncc2)nn1Cc1ccnc(C(F)(F)F)c1 [Compound 39]	0	0	0	0	0	0	0	30	30	90	0	0	0	10	50	70	20	30	10	20	Plant response rating, Pigweed ([11]; 31 g ai/ha): 60; Plant response rating, Pigweed ([11]; 125 g ai/ha): 70; Plant response rating, Ryegrass, Italian ([12]; 31 g ai/ha): 0; Plant response rating, Ryegrass, Italian ([12]; 125 g ai/ha): 0; Plant response rating, Wheat ([13]; 31 g ai/ha): 0; Plant response rating, Wheat ([13]; 125 g ai/ha): 0; Plant response rating, Corn ([14]; 31 g ai/ha): 0; Plant response rating, Corn ([14]; 125 g ai/ha): 20; Plant response rating, Blackgrass ([15]; 31 g ai/ha): 0; Plant response rating, Blackgrass ([15]; 125 g ai/ha): 0; Plant response rating, Galium ([16]; 31 g ai/ha): 40; Plant response rating, Galium ([16]; 125 g ai/ha): 60
